In patent publication US20030228621A1, “Common ligand universal enzyme assay and compositions for use therein” (priority 2002, published 2003):
Where two headings read alike, the source gives them in different places.

Legend:
[1] = target: T1, dihydrodipicolinate reductase (DHPR) (Escherichia coli, UniProt P04036); test: Fluorescence polarization displacement of FITC-NADH from dihydrodipicolinate reductase; format: binding
Experimental: FITC-NADH was dissolved in 10 mM TAPS buffer with 5% NaHCO3, pH=8. The final concentration of FITC-NADH was 150 μM. In later experiments 150 μM FITC-NADH was diluted to the desired concentration in 20 mM Potassium Phosphate buffer, pH=7.4. Fluorescence polarization was monitored using a Beacon 2000 Variable Temperature Fluorescence Polarization System (PanVera Corporation, Madison, Wis.) and an LJL Analyst HT 96-384 (Molecular Devices Corporation, Sunnyvale, Calif.). The concentration of FITC-NADH as fluorescent tracer was selected by measuring fluorescence polarization of varying concentrations of FITC-NADH in 10 mM Potassium Phosphate buffer, pH=7.4. The concentration range was 0.15 nM—15 nM. For the best signal to noise ratio regarding both the horizontal and vertical intensities that contribute to the fluorescence polarization value, a concentration of 25 nM was chosen for FITC-NADH in the majority of experiments.
The fluorescence polarization of solutions of 7 μM dihydrodipicolinate reductase and 25 nM FITC-NADH with NADH was measured. The concentration of dihydrodipicolinate reductase was such that a solution of dihydrodipicolinate reductase and FITC-NADH would give the fluorescence polarization mP value of 220-230 mP. The blank was protein in buffer and NADH. […] The data was fitted to the following equation:
mP=YH′−(YH′−YL)*(1/(1+Kd^app/C))
Kd=Kd^app*(1/(1+A/Kd^tracer))
(§1) where C is the concentration of NADH; A is the concentration of enzyme; YH′ is the polarization for the FITC-NADH at the specified enzyme concentration in the absence of NADH; YL is the polarization for FITC-NADH when fully displaced from the enzyme by NADH; and Kd^tracer is the dissociation constant of the enzyme for FITC-NADH.
The displacement of FITC-NADH from dihydrodipicolinate reductase in the presence of the candidate inhibitor compound bromaminic acid, an NMNH-mimic (nicotinamide mononucleotide mimic), was measured by fluorescence polarization assay. The concentration of dihydrodipicolinate reductase was such that dihydrodipicolinate reductase in the presence of FITC-NADH would give the fluorescence polarization, mP, value of 220-230. Protein in buffer combined with the inhibitor was used as the blank.
The Log(bromaminic acid, μM) versus Polarization (mP) data were fitted to the following equation: […]
as §1
In this assay, enzyme in the presence of the ligand has less FITC-NADPH bound if both of the ligands compete for the same site.
(§2) A population of 620 compounds were screened in the competitive displacement assay described herein. […] These compounds are depicted in FIG. 16.

[2] = target: T1, dihydrodipicolinate reductase (DHPR); test: Enzyme activity in presence and absence of varying concentration of dye, DHPR; format: biochemical; conditions: for IC50: read-out: Inhibition (IC50, nM) DHPR
Experimental: (§3) In search for specific ligands with potent binding to several dehydrogenases we screened our internal enzyme panel. In brief, activity of the enzymes was measured in the presence and absence of the varying concentration of the dyes.

[3] = target: Deoxy-D-xylulose 5-phosphate reductoisomerase (DOXPR) (Escherichia coli, UniProt P45568); test: Enzyme activity in presence and absence of varying concentration of dye, DOXPR; format: biochemical; conditions: for IC50: NADPH at sixteen times its Km, read-out: Inhibition (IC50, nM) DOXPR
Experimental: as §3
(§4) In this assay, the oxidoreductase common ligand (NADPH) was employed at a concentration sixteen times its Km value. Use of such a high concentration of oxidoreductase common ligand results in a calculated IC50 value at least 17-fold that of the dissociation constant (Kd).

dehydrogenases = test: Extent and reversibility of inhibition of the dehydrogenase panel by triazinyl dyes; format: biochemical
Experimental: as §3
Since all of the dye molecules have a triazinyl reactive group, reversibility of the inhibition was checked.
as §4

[4] = target: Enoyl-acyl carrier protein reductase (EACPR) (Escherichia coli, UniProt P0AEK4); test: Enzyme activity in presence and absence of varying concentration of dye, EACPR; format: biochemical; conditions: read-out: Inhibition (IC50, nM) EACPR
Experimental: as §3

[5] = target: 1-deoxy-D-xylulose 5-phosphate reductoisomerase (DOXPR) (Escherichia coli, UniProt P45568); test: Displacement of FITC-NADPH from the FITC-NADPH:DOXPR complex (FIG. 14A, 14B); format: binding; conditions: displacement of FITC-NADPH tracer from DOXPR
Excerpt: (§5) The competitive binding of the dye common ligands of the present invention can be evaluated by use of a displacement assay. In particular, enzyme in the presence of a competitive ligand will have less FITC-NADPH bound if both ligands compete for the same site. […] The dye common ligands of the present invention can completely displace FITC-NADPH from complexes containing this fluorescent tracer and a dehydrogenase. […] Thus, dye common ligands of the invention are useful in displacement assays to study the activity of an oxidoreductase, particularly those having unknown function.
(§6) In competitive assays, the tested dyes displaced the fluorescent-based tracer FITC-NADPH, implying that the dyes bind to DOXPR at the common ligand site. In this assay, enzyme in the presence of the ligand has less FITC-NADPH bound if both of the ligands compete for the same site. […] Calculated Kd values were based on curve shape and were lower than the experimentally determined IC50s.

[6] = target: T2, 3-Hydro-3-methyl-glutaryl-CoA reductase (HMGCoAR) (Homo sapiens, UniProt P04035); test: Enzyme activity in presence and absence of varying concentration of dye, HMGCoAR; format: biochemical; conditions: read-out: Inhibition (IC50, nM) HMGCoAR
T2 sequence (P04035 1-888): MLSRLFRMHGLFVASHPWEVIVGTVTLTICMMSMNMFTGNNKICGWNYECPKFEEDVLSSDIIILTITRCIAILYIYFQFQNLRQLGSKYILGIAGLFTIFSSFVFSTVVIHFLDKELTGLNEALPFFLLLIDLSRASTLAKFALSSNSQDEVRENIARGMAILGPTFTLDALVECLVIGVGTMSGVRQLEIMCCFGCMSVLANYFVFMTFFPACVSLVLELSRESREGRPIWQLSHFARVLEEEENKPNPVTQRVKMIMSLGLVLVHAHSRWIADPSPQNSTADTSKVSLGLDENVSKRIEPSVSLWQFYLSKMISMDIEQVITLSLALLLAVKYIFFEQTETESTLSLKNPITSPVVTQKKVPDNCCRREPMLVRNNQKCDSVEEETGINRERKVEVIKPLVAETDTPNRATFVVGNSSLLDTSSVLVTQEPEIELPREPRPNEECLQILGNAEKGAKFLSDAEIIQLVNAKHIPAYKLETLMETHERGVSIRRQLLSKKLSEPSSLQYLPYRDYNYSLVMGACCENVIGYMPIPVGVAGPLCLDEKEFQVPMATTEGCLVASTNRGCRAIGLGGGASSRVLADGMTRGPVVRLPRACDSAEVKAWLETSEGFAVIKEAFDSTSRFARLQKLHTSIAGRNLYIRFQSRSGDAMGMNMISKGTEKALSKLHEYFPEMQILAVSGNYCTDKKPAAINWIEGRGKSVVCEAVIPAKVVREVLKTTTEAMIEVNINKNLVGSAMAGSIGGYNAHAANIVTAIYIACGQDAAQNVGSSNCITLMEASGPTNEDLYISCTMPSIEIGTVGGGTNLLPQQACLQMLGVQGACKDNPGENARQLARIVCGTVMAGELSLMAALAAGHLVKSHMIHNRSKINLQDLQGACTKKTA
Experimental: as §3

DOXPR = DOXPR (Escherichia coli, UniProt P45568); test: Displacement of FITC-NADPH from the FITC-NADPH:DOXPR complex; format: binding
Excerpt: as §5, §6, §2

[7] = target: Lactate dehydrogenase (LDH); test: Enzyme activity in presence and absence of varying concentration of dye, LDH; format: biochemical; conditions: read-out: Inhibition (IC50, nM) LDH
Experimental: as §3

DHPR = DHPR (Escherichia coli, UniProt P04036); test: Intrinsic fluorescence of the compound upon binding to the enzyme; conditions: excitation 365 nm, emission 435 nm
Excerpt: It can be used either as a tracer for the screening, with or without being labeled with a detectable moiety of the invention. As such, this compound can be used for screening candidate ligands.

[8] = 7 μM DHPR, 25 nM FITC-NADH, not corrected for enzyme concentration, read-out: Kapp (Kd app), displacement of FITC-NADH
[9] = 7 μM DHPR, 25 nM FITC-NADH, read-out: actual Kd after correction for enzyme concentration
[10] = calculated from curve shape, read-out: Kd from displacement experiments with FITC-NADH and DHPR

T1 sequence (P04036 whole entry): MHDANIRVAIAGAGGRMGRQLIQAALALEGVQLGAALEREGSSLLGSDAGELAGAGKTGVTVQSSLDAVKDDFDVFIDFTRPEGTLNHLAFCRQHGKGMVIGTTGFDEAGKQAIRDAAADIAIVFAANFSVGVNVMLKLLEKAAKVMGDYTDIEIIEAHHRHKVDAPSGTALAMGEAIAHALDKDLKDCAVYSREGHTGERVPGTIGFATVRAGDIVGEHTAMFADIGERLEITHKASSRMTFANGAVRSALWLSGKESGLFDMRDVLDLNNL
Sequence of Deoxy-D-xylulose 5-phosphate reductoisomerase (DOXPR) (P45568 whole entry): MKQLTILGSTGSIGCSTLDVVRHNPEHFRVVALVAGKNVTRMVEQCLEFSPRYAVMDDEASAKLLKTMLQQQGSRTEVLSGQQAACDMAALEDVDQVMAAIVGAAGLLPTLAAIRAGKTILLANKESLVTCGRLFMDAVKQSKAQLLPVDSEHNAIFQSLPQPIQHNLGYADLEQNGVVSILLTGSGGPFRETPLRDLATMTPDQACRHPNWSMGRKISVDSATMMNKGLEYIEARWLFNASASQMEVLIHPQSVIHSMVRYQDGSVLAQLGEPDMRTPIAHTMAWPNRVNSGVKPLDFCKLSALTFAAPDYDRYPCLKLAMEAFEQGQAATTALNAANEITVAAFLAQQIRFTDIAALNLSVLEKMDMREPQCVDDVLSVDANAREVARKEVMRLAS
Sequence of Enoyl-acyl carrier protein reductase (EACPR) (P0AEK4 whole entry): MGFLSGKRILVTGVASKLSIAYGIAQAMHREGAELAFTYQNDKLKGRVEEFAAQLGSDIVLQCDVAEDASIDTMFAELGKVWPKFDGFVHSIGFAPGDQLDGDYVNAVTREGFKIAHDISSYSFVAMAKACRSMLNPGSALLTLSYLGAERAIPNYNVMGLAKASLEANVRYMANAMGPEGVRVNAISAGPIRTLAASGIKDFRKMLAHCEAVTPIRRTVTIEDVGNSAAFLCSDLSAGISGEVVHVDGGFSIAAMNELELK
Sequence of DOXPR (P45568 whole entry): as the sequence (P45568 whole entry) above
Sequence of 1-deoxy-D-xylulose 5-phosphate reductoisomerase (DOXPR) (P45568 whole entry): as above
Sequence of DHPR (P04036 whole entry): as the sequence (P04036 whole entry) above

Molecule: NC(=O)C1=CN([C@@H]2O[C@H](COP(=O)(O)OP(=O)(O)OC[C@H]3O[C@@H](n4cnc5c(N)ncnc54)[C@H](O)[C@@H]3O)[C@@H](O)[C@H]2O)C=CC1 [NADH, Reduced nicotinamide adenine dinucleotide]
- Kd [1, 8]: 1200 ± 150 nM
- Kd [1, 9]: 200 nM

Molecule: Nc1c(S(=O)(=O)O)cc(Br)c2c1C(=O)c1ccccc1C2=O [bromaminic acid]
- Kd [1, 8]: 30000 ± 2200 nM
- Kd [1, 9]: 5000 nM

Molecule: Sulphophthalocyanine
- binding to DHPR ([2]; tested for inhibition of DHPR): binds
- binding to DOXPR ([3]; tested for inhibition of DOXPR): binds

Molecule: O=S(=O)(O)c1cc(Nc2nc(Cl)nc(Nc3ccc(Nc4nc(Cl)nc(Nc5cc(S(=O)(=O)O)cc6cc(S(=O)(=O)O)c(N=Nc7ccccc7S(=O)(=O)O)c(O)c56)n4)cc3)n2)c2c(O)c(N=Nc3ccccc3S(=O)(=O)O)c(S(=O)(=O)O)cc2c1 [Reactive Red 120]
- IC50 [2]: 220 nM
- reversibility of the inhibition (dehydrogenases): full reversible inhibition
- Kd [1, 10]: 54 nM
- IC50 [4]: 246 nM
- Kd ([5]; calculated, based on curve shape): 5.8 nM
- IC50 [5]: 310 nM
- IC50 [6]: 360 nM
- displacement of FITC-NADPH from the FITC-NADPH:DOXPR complex (DOXPR): completely displaced
- IC50 [7]: 9.7 nM
- mode of inhibition versus oxidoreductase common ligand (NADPH) [3]: competitive
- IC50 [3]: 230 nM

Molecule: Reactive Green 5
- IC50 [2]: 230 nM
- reversibility of the inhibition (dehydrogenases): full reversible inhibition
- Kd [1, 10]: 15 nM
- IC50 [6]: 44 nM
- displacement of FITC-NADPH from the FITC-NADPH:DOXPR complex (DOXPR): completely displaced
- IC50 [7]: 590 nM
- mode of inhibition versus oxidoreductase common ligand (NADPH) [3]: competitive

Molecule: O=S(=O)(O)c1cc(Nc2nc(Nc3ccccc3)nc(N(CCO)CCO)n2)ccc1/C=C\c1ccc(Nc2nc(Nc3ccccc3)nc(N(CCO)CCO)n2)cc1S(=O)(=O)O
- increase in intrinsic fluorescence upon binding to the enzyme (DHPR): 3 fold
- Kd ([1]; compound from screen of 620 compounds, read-out: kd, tight binding to DHPR): < 100 nM

Molecule: Nc1c(S(=O)(=O)O)cc(Nc2ccc(Nc3nc(Cl)nc(Nc4cccc(S(=O)(=O)O)c4)n3)c(S(=O)(=O)O)c2)c2c1C(=O)c1ccccc1C2=O [Reactive Blue 2]
- IC50 [2]: 1100 nM
- reversibility of the inhibition (dehydrogenases): full reversible inhibition
- IC50 [4]: 2500 nM
- IC50 [6]: 1000 nM
- IC50 [7]: 1500 nM
- IC50 [3]: 2000 nM
